First: Cc1c(NCCNCC(O)COc2ccccc2)c(=O)n(C)c(=O)n1C (stereo not given)
Second: O=C1C(=O)N(CCCCl)c2ccccc21
The melting point of the first is higher: 92 to 94 °C for the first, 72 to 76.5 °C for the second.

First: Cc1cccc(C)c1NC(=O)CN1CCN2C(C1)C(=O)N(C(C)C)C2(C)C (stereo not given)
Second: Cc1c2c(c3ccccc3c1NC(=O)CC(C)(C)C)OCC2c1ccc(C(C)C)cc1 (stereo not given)
The melting point of the first is lower: 155 °C for the first, 183 to 184 °C for the second.

First: Cn1cncc1C(O)(c1ccc(Cl)cc1)c1cc2c3c(c1)c(-c1cccc(Cl)c1)cc(=O)n3CC2 (stereo not given)
Second: O=Cc1ccc(N(c2ccccc2)c2ccc3c4c(cccc24)CC3)cc1
The melting point of the first is higher: 214 °C for the first, 138 to 141 °C for the second.

Compared with `CC12CCC(O)CC1CCC1C2CCC2(C)C(=O)CCC12F` (stereo not given), `CC(O)C1CCC2C3CC=C4CC(N)CCC4(C)C3CCC12C` (stereo not given) is lower in melting point: 201 to 202 °C for the first, 160 °C for the second.

First: Nc1ncc(-c2cccc(-n3cnc4cc(-c5ccoc5)ccc43)c2)cn1
Second: Nc1nc2ccnc(-c3cccc(C=O)c3)n2n1
The melting point of the first is higher: 222 to 223 °C for the first, 205 to 208 °C for the second.

Compared with `COc1ccc(CCNC(=S)c2ccccc2C)cc1OC`, `COc1ccc(/C=C/CO)cc1OCc1nc(-c2ccccc2)oc1C` is higher in melting point: 94 to 95 °C for the first, 137 to 138 °C for the second.

First: CC(C)(C(=O)Cl)C(=S)Cl
Second: CCOC(=O)c1ccc(C(C)(C)C(N)=O)cc1
The melting point of the first is higher: 112 to 114 °C for the first, 104 to 109 °C for the second.

Compared with `NC(=O)N(O)CCOc1ccc2c(c1)CCN(CCCc1ccc(F)cc1)C2=O`, `CCC(CC)N(Cc1ccc(C(=O)O)cn1)S(=O)(=O)c1ccc(F)cc1` is higher in melting point: 138 to 140 °C for the first, 145 to 147 °C for the second.

First: CCCCOCCOc1ccc(-c2ccc3c(c2)C=C(C(=O)Nc2ccc([C@H](O)c4ccccn4)cc2)CCN3S(C)(=O)=O)cc1
Second: COc1ccc(CCN(C)CCOc2ccc(NC(=O)c3cccc4c(=O)c5cc(F)ccc5sc34)cc2)cc1OC
The melting point of the first is higher: 158 to 160 °C for the first, 145 °C for the second.

First: NC(=O)c1c(Cl)cc(Cl)c(OCCCC(=O)O)c1Cl
Second: Nc1nc2ccc(S(=O)(=O)n3c(CCCC(=O)O)cc4nc(Cl)ccc43)cc2s1
The melting point of the first is lower: 165 to 166 °C for the first, over 250 °C for the second.

Going from `CCOC(=O)NCCN1CCC(n2c(=O)[nH]c3cc(Cl)ccc32)CC1` to `CCC(=O)N1CCN(C(=O)OC2C3=C(SCC(OC)CS3)C(=O)N2c2ccc(Cl)cn2)CC1` (stereo not given), the melting point falls from 188 °C to 160 °C.

First: CC(C)CCNC(=O)c1ccccc1-c1ccccc1CNS(=O)(=O)c1ccccc1
Second: O=C(NC1N=C(c2ccccc2F)c2ccccc2NC1=O)OCc1ccccc1 (racemic)
The melting point of the first is lower: 127 °C for the first, 208 °C for the second.

Compared with `CN(C)C1CCN(c2nccc(Oc3ccc(NC(=O)c4cc(F)cc(N5CCCCC5)c4)c4ccccc34)n2)C1` (stereo not given), `COc1ccc(-c2cccc(C3SC(N4CCOCC4)=NC3=O)n2)cc1-c1ccccc1` (stereo not given) is higher in melting point: 93 to 94 °C for the first, 214 to 217 °C for the second.

Compared with `COC(=O)c1ccc(S(C)(=O)=O)c(COC(C)=O)c1Cl`, `COC(=O)c1nc(-c2ccc(Cl)c(OC)c2F)c(F)c(N)c1SC` is lower in melting point: 165 to 168 °C for the first, 113 to 117 °C for the second.

First: COC1(OC)CCN(c2nc3c(cc2F)C=C(C(=O)O)CN3c2ccc(F)cc2F)C1
Second: CCON=C1CN(c2nc3c(cc2F)c(=O)c(C(=O)O)cn3C2CC2)CC12CN(C(=O)OC(C)(C)C)C2
The melting point of the first is lower: 205 to 206 °C for the first, 261 to 262 °C for the second.

First: CS(=O)(=O)N1CCN(c2nc(N)nc(-c3cc(Cl)ccc3Cl)n2)CC1
Second: CS(=O)(=O)N1CCC(=C2c3ccccc3CCc3cccnc32)CC1
The melting point of the first is lower: 184 to 186 °C for the first, 223 to 224 °C for the second.

First: COCc1sc(C(C)(O)c2ccsc2)nc1C (stereo not given)
Second: COc1cc(-c2nc3ncccc3o2)cc(C(C)(C)C)c1
The melting point of the first is lower: 71 to 73 °C for the first, 119 to 121 °C for the second.

Compared with `CCc1nn2c(N3CCN(C)CC3)cc(OCCO)nc2c1S(=O)(=O)c1ccccc1`, `CN1CCN(CCCNc2ncc3c(n2)-c2ccccc2C(c2ccc(Cl)c(Cl)c2)C3)CC1` (stereo not given) is lower in melting point: 153 to 154 °C for the first, 135 to 136 °C for the second.

First: N#Cc1ccc(CC2CCN(C(=O)c3ccc(Cl)cc3)CC2)cc1
Second: N#Cc1ccc(C=Nc2c3c(nc4ccccc24)CCCC3)cc1
The melting point of the first is lower: 137 to 139 °C for the first, 204 to 205 °C for the second.

First: Cc1cc2cc(N(C(=O)Nc3ccc(F)cc3F)c3ccccc3Cl)c(=O)oc2cc1C
Second: Cc1ccc2cccc(OCc3c(C)ccc(NC(=O)CN4C(=O)c5ccccc5C4=O)c3C)c2n1
The melting point of the first is lower: 212 to 214 °C for the first, 266 to 268 °C for the second.

First: C#CCCc1cc2cc(C(=O)OC)ccc2o1
Second: COC(=O)CCc1oc2ccc(C#N)cc2c1C(=O)c1ccc(O)cc1
The melting point of the first is lower: 57 to 58 °C for the first, 156 to 158 °C for the second.

First: CCOC(=O)C1=CC(C(=O)c2cc(C)ccc2O)=CN2CCc3c([nH]c4ccccc34)C12C(=O)OCC (stereo not given)
Second: CCOC(=O)c1ccc(COCc2csc3nc(C(=O)NCc4cccc(OC)c4)[nH]c(=O)c23)cc1
The melting point of the first is higher: 208 °C for the first, 173 °C for the second.

First: CCCCOC(=O)[C@H]1CN(c2ccc3c(c2)oc(=O)n3C(C)C)C(=O)O1
Second: C=C(C)C(=O)c1nc(S(=O)C(C)C)n(-c2ccc(CC)cc2)c1Cl (stereo not given)
The melting point of the first is higher: 86 to 89 °C for the first, 83 to 84 °C for the second.

First: Cc1cccc2oc(C(O)[C@H](C)NC(=O)OCc3ccccc3)nc12 (stereo not given in full)
Second: CCC(C)C(NC(c1ccccc1)c1ccccc1)P(O)O (stereo not given)
The melting point of the first is lower: 98 °C for the first, 174 to 176 °C for the second.

First: Cc1cc2c(cc1C(=O)c1c(C(F)(F)F)ccnc1Cl)OCO2
Second: Cc1cc(Oc2ccc(-c3ccn(CC4CC4)c(=O)c3C(F)(F)F)cc2F)cc(C)n1
The melting point of the first is lower: 119 to 122 °C for the first, 162 °C for the second.

First: N#CC(c1ccc(Cl)c(C(F)(F)F)c1)N1CCOCC1 (stereo not given)
Second: CSc1cc(C(F)(F)F)ccc1C(=O)O
The melting point of the first is lower: 73 to 74 °C for the first, 178 to 179 °C for the second.

First: CCOC(=O)[C@H](CC(C)C)NC(=O)[C@@H](NC(=O)c1ccccc1)C(C)C
Second: CC(C)(C)NC(=O)[C@@H]1[C@@H](Cl)CCN1C(=O)[C@@H](O)[C@H](Cc1ccccc1)NC(=O)[C@H](CC(N)=O)NC(=O)OCc1ccccc1
The melting point of the first is higher: 159 to 160 °C for the first, 102 to 104 °C for the second.

First: N#Cc1cnc2cc3ccccc3cc2c1Cl
Second: N#Cc1c(O)nc2ccc(Cl)cc2c1O
The melting point of the first is lower: 253 to 255 °C for the first, 275 to 277 °C for the second.

First: O=C(O)CCC(=NOCc1ccc(OCc2ccc3ccccc3n2)cc1)c1ccccc1
Second: O=C1OC(c2ccccc2)(c2ccc(-c3ccccc3)cc2)C(O)=C1OCc1ccccc1 (stereo not given)
The melting point of the first is lower: 133 to 134 °C for the first, 190 to 195 °C for the second.

Going from `CC(=O)OC1CSC(Oc2cncc(-c3ccc(C)o3)c2)C(OC(C)=O)C1OC(C)=O` (stereo not given) to `CC1ON(C)C(=O)C(C(=O)c2ccc(Cl)cc2[N+](=O)[O-])C1=O` (stereo not given), the melting point rises from 124 °C to 128 °C.

First: O=C(O)C=CC=Cc1cccc2cncn12
Second: CC(=O)COc1cccnc1C(N)=O
The melting point of the first is higher: 243 to 245 °C for the first, 135 to 140 °C for the second.

Compared with `CCNC(=O)N1N=C(c2ccc(N)cc2)c2cc(Cl)ccc2CC1C` (stereo not given), `Nc1ccc(Oc2cc(C34CCCCC3C(=O)NC4=O)c(F)cc2Cl)cc1` (stereo not given) is higher in melting point: 165 to 167 °C for the first, 213 to 215 °C for the second.

First: COc1cc(Nc2c(C#N)cnc3cc(OCC4CCCCO4)c(OC)cc23)c(Cl)cc1Cl (stereo not given)
Second: COc1cc(C(=O)O)ccc1Cc1nn(C)c2ccc(NC(=O)OC3CCCC3)cc12
The melting point of the first is lower: 193 to 196 °C for the first, 216 to 217 °C for the second.

First: COc1ccc(-c2cc(=O)n(CC(C)C)nc2-c2ccc(OC)c(F)c2)cc1
Second: CC(C)CSc1c(-c2ccc(S(C)(=O)=O)cc2)cnn(CC(F)(F)F)c1=O
The melting point of the first is lower: 86.8 to 87.4 °C for the first, 135 to 138 °C for the second.

`C1=CC(c2ccccc2)(c2ccccc2)CCS1` and `CS(=O)c1nc(-c2ccccc2)c(-c2ccccc2)o1` (stereo not given) cannot be ordered by melting point: 78 °C for the first, 75 to 78 °C for the second.

First: CCN1c2ncccc2C(C#N)=Nc2c(C)cc(C)nc21
Second: CON1C=C2N=NC3=C(N2C1)N(c1ccccc1)CC(C)=C3
The melting point of the first is lower: 154 to 155 °C for the first, 214 to 217 °C for the second.

Compared with `CCCc1c(OCCCCCC(=O)NCCc2cccnc2)ccc(C(C)=O)c1O`, `CCCc1nc2c(N)nc3ccccc3c2n1CCCCN(O)C(=O)NC(C)C` is higher in melting point: 76 to 78 °C for the first, 158 to 160 °C for the second.

`COc1ccc(NC(=O)Nc2ccc(Cl)c(Cl)c2)cc1NS(=O)(=O)c1cccs1` and `CC(C)(C)c1cc(CCc2ccc(NC(=O)Nc3ccccc3)cc2)cc(C(C)(C)C)c1O` cannot be ordered by melting point: 205 to 208 °C for the first, 206 to 207 °C for the second.

Compared with `COC(=O)CCCN1CCC(CNC(=O)[C@@H]2CCCN2S(=O)(=O)c2ccc(Cl)c(COc3cccc4c(-n5ccnc5)cc(C)nc34)c2Cl)CC1`, `O=C1CCC(N2Cc3c(OCc4ccc(CN5CCN(C(=O)CCCCC6SCC7NC(=O)NC76)CC5)cc4)cccc3C2=O)C(=O)N1` (stereo not given) is higher in melting point: 98 °C for the first, 168 to 170 °C for the second.

Compared with `CC(C)(S)CN1CCN(CCOCCO)CC1`, `COc1ccccc1N1CCN(C[C@@H](CC2CCCCC2)NC(=O)C2(C)CCCCC2)CC1` is higher in melting point: 38 °C for the first, 119 to 121 °C for the second.

First: Nc1ccc(-c2noc(-c3cnn4c(C(F)F)cc(-c5ccc(C(F)(F)F)c(OCC(F)(F)F)c5)nc34)n2)cn1
Second: OCCCNc1cc(-c2ccnc(Nc3cccc(C(F)(F)F)c3)n2)ccn1
The melting point of the first is higher: 285 °C for the first, 158 to 163 °C for the second.

Compared with `COc1nc(Cl)nc(N)c1C`, `CS(=O)(=O)c1ccc(Cn2ccc3c4c(N)nc(N)nc4ccc32)cc1` is higher in melting point: 189 °C for the first, 248 °C for the second.

`CCCNC(=O)C(CC)Cc1ccc2c(c1)c(Cc1ccc(C(=O)NS(=O)(=O)c3ccccc3C)cc1OC)cn2CCC` (stereo not given) and `COc1ccc(C(=O)Nc2ccc(C3(CNC(=O)c4cscn4)CCCC3)cc2)cc1OC` cannot be ordered by melting point: 93 to 105 °C for the first, 101 to 104 °C for the second.

Compared with `COC(=O)CCn1c(=O)n2n(c1=O)C(C(=O)OC)C=CC2` (stereo not given), `CCOC(=O)C(=O)Nc1ccc(Cc2ccc(NC(=O)C(=O)OCC)cc2)cc1` is higher in melting point: 91 to 92 °C for the first, 146 to 147 °C for the second.

First: Cn1c(=O)c(=O)[nH]c2ccc3c(c21)CCCN3
Second: CC(C)(C(=O)OCC(=O)c1ccccc1)n1c(=O)[nH]c2cccc(F)c2c1=O
The melting point of the first is higher: over 285 °C for the first, 179 to 180 °C for the second.

First: O=[N+]([O-])c1cc(C2=NOC(c3cc(C(F)(F)F)cc(C(F)(F)F)c3)(C(F)(F)F)C2)ccc1N1C=NNN1 (stereo not given)
Second: COc1ccc2c(c1)OC1(O)c3ccccc3C(=O)C21O (stereo not given)
The melting point of the first is higher: 147 to 149 °C for the first, 98 to 100 °C for the second.

Compared with `O=C(O)c1cn(C2CC2)c2c(Cl)c(N3CC4CCCC3CN4)c(F)cc2c1=O` (stereo not given), `Cn1c(Cl)c(C=O)c2ccc(Cl)cc21` is lower in melting point: 217 to 220 °C for the first, 166 to 168 °C for the second.

`C=CCOc1ccc(C(=O)c2ccnn2C)c(Cl)c1Cl` gave a melting point of 118 to 119 °C.
